Measured values reported in US20240051944A1, “CRYSTALLINE FORM II OF MELANOCORTIN RECEPTOR AGONIST COMPOUND AND PREPARATION METHOD THEREFOR” (LG CHEM, LTD., priority 2020, published 2024).
Entries after “also recorded” stand apart in the source; their conditions may differ.

Columns and labels:
Assay type in all cases: physicochemical
[1] = Stability assessment (HPLC) under accelerated and harsh storage conditions; conditions: for Stability assessment, HPLC content: in % (unit assumed)
Method: About 10-30 mg of the sample was stored for 4 weeks in an open state under the accelerated condition (40° C., 75% RH) or in a sealed state under the harsh condition in an oven at 80° C. [table]

[2] = Thermogravimetric analysis (TGA); conditions: heated 30° C. to 350° C. at 10° C./min
Method: The TGA was measured using Mettler Toledo TGA/DSC 1 module. About 4-8 mg of the sample is weighed and put into a 100 μL Al crucible (flat-bottomed aluminum crucibles). Then, TGA measurement is performed while the sample is heated from 30° C. to 350° C. at a rate of 10° C./min. During the measurement, nitrogen gas is supplied to the inside of the instrument at a rate of 80 mL/min to prevent the inflow of oxygen and other gases. Data collection and evaluation were performed using the software STARe.

[3] = Dynamic vapor sorption (DVS) analysis
Method: DVS was measured using automated gravimetric vapor sorption analyzer equipped with Cahn D200 ultra-microbalance (DVS Intrinsic apparatus, Surface Measurement System Ltd., UK). First, a sample of 10-20 mg was put in a sample pan and hung on a hang-down wire, and measurement was started when the weight and humidity reached equilibrium. In one cycle, relative humidity was increased from 0% to 90% and then dropped back to 0%. Two cycles were carried out. The experiment was carried out in a way that the relative humidity was increased at 10% increment using a dm/dt method. The experiment was carried out at room temperature (25° C.)

CC(C)C(=O)N([C@H]1C[C@@H](C(=O)N2CCOCC2)N(C(=O)[C@@H]2CN(C(C)(C)C)C[C@H]2c2ccc(Cl)cc2)C1)[C@H]1CC[C@@H](C)CC1 [Example 1, N-((3S,5S)-1-((3S,4R)-1-(tert-butyl)-4-(4-chlorophenyl)pyrrolidine-3-carbonyl)-5-(morpholine-4-carbonyl)pyrrolidin-3-yl)-N-((1s,4R)-4-methylcyclohexyl)isobutyramide]
Stability assessment, HPLC content ([1]; Accelerated condition (40° C./75% RH), open state, Day 3): 96.35
Stability assessment, HPLC content ([1]; Accelerated condition (40° C./75% RH), open state, Week 1): 96.02
Stability assessment, HPLC content ([1]; Accelerated condition (40° C./75% RH), open state, Week 2): 96.08
Stability assessment, HPLC content ([1]; Accelerated condition (40° C./75% RH), open state, Week 4): 95.69
Stability assessment, HPLC content ([1]; Harsh condition (80° C.), sealed state, Day 3): 96.54
Stability assessment, HPLC content ([1]; Harsh condition (80° C.), sealed state, Week 1): 95.74
Stability assessment, HPLC content ([1]; Harsh condition (80° C.), sealed state, Week 2): 94.82
Stability assessment, HPLC content ([1]; Harsh condition (80° C.), sealed state, Week 4): 93.42
Stability assessment, HPLC content ([1]; Initial): 96.01
chemical stability (HPLC), result in words ([1]; accelerated condition (40° C., 75% RH), 4 weeks, listed as crystalline form II): showed chemical stability for 4 weeks; also recorded: exhibited chemical stability for 4 weeks
decrease in the content ([1]; harsh condition (closed state, 80° C.), 4 weeks): about 2.6%
weight loss before degradation (TGA) [2]: no weight loss was observed
temperature up to which thermally stable (TGA) ([2]; error ±5° C.): up to 270 °C
physical change after DVS (XRPD pattern vs initial) ([3]; XRPD after DVS analysis): no physical change occurred
total weight gain (DVS) ([3]; between 0-90% RH, 25° C.): 1.25 % w/w
